In ChEMBL document CHEMBL1201862, “PubChem BioAssay data set” (2004):
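Briefly, cells in 96-well plates were exposed to five compound concentrations for 48 h, and endpoints were estimated by linear interpolation. GI50: concentration for 50% inhibition of growth.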 The source made the active and inactive calls. Cut-off read from the data, not from the text of the source: active = GI50 up to about 1.1 µM and inactive = higher.

Legend:
Assay in all cases: NCI tumour cell line growth inhibition, 48 h
SK-OV-3 = system: SK-OV-3
SK-MEL-5 = system: SK-MEL-5
HCT-116 = system: HCT-116
HOP-92 = system: HOP-92
SF-539 = system: SF-539
UACC-257 = system: UACC-257
TK-10 = system: TK-10
NCI-H522 = system: NCI-H522
KM-20L2 = system: KM-20L2
CAKI-1 = system: CAKI-1
SK-MEL-28 = system: SK-MEL-28
ACHN = system: ACHN
EKVX = system: EKVX
SF-268 = system: SF-268
UO-31 = system: UO-31
A549 = system: A549
RXF 393 = system: RXF 393
OVCAR-5 = system: OVCAR-5
SR = system: SR
LXFL 529 = system: LXFL 529
NCI-H226 = system: NCI-H226
COLO 205 = system: COLO 205
LOX IMVI = system: LOX IMVI
Malme-3M = system: Malme-3M
M19-MEL = system: M19-MEL
DMS-273 = system: DMS-273
SNB-75 = system: SNB-75
M14 = system: M14
SW-620 = system: SW-620
OVCAR-8 = system: OVCAR-8
IGROV-1 = system: IGROV-1
U-251 = system: U-251
HL-60 = system: HL-60
MOLT-4 = system: MOLT-4
DMS-114 = system: DMS-114
A498 = system: A498
HCT-15 = system: HCT-15
HCC 2998 = system: HCC 2998
SNB-78 = system: SNB-78
SK-MEL-2 = system: SK-MEL-2
786-0 = system: 786-0
OVCAR-3 = system: OVCAR-3
HT-29 = system: HT-29
UACC-62 = system: UACC-62
RPMI-8226 = system: RPMI-8226
SF-295 = system: SF-295
SN12C = system: SN12C
NCI-H460 = system: NCI-H460
NCI-H23 = system: NCI-H23
RXF 631 = system: RXF 631
OVCAR-4 = system: OVCAR-4
HOP-62 = system: HOP-62
DLD-1 = system: DLD-1
HOP-18 = system: HOP-18
SNB-19 = system: SNB-19
CCRF-CEM = system: CCRF-CEM
KM12 = system: KM12
XF498 = system: XF498
K562 = system: K562

COC(=O)C1=CC2C=CC(C1C(=O)OC)C1C(C(=O)OC)=C(C(=O)OC)C(C(=O)OC)=C(C(=O)OC)C21OC (centres undefined)
GI50 (SK-OV-3): > 100 µM (inactive)
GI50 (SK-MEL-5): > 100 µM (inactive)
GI50 (HCT-116): > 100 µM (inactive)
GI50 (HOP-92): > 100 µM (inactive)
GI50 (SF-539): > 100 µM (inactive)
GI50 (UACC-257): > 100 µM (inactive)
GI50 (TK-10): > 100 µM (inactive)
GI50 (NCI-H522): > 100 µM (inactive)
GI50 (KM-20L2): > 100 µM (inactive)
GI50 (CAKI-1): > 100 µM (inactive)
GI50 (SK-MEL-28): > 100 µM (inactive)
GI50 (ACHN): > 100 µM (inactive)
GI50 (EKVX): > 100 µM (inactive)
GI50 (SF-268): > 100 µM (inactive)
GI50 (UO-31): > 100 µM (inactive)
GI50 (A549): > 100 µM (inactive)
GI50 (RXF 393): > 100 µM (inactive)
GI50 (OVCAR-5): > 100 µM (inactive)
GI50 (SR): > 100 µM (inactive)
GI50 (LXFL 529): > 100 µM (inactive)
GI50 (NCI-H226): > 100 µM (inactive)
GI50 (COLO 205): > 100 µM (inactive)
GI50 (LOX IMVI): > 100 µM (inactive)
GI50 (Malme-3M): > 100 µM (inactive)
GI50 (M19-MEL): > 100 µM (inactive)
GI50 (DMS-273): > 100 µM (inactive)
GI50 (SNB-75): > 100 µM (inactive)
GI50 (M14): > 100 µM (inactive)
GI50 (SW-620): > 100 µM (inactive)
GI50 (OVCAR-8): > 100 µM (inactive)
GI50 (IGROV-1): > 100 µM (inactive)
GI50 (U-251): > 100 µM (inactive)
GI50 (HL-60): > 100 µM (inactive)
GI50 (MOLT-4): > 100 µM (inactive)
GI50 (DMS-114): > 100 µM (inactive)
GI50 (A498): > 100 µM (inactive)
GI50 (HCT-15): > 100 µM
GI50 (HCC 2998): > 100 µM (inactive)
GI50 (SNB-78): > 100 µM (inactive)
GI50 (SK-MEL-2): > 100 µM (inactive)
GI50 (786-0): > 100 µM (inactive)
GI50 (OVCAR-3): > 100 µM (inactive)
GI50 (HT-29): > 100 µM (inactive)
GI50 (UACC-62): > 100 µM (inactive)
GI50 (RPMI-8226): > 100 µM (inactive)
GI50 (SF-295): > 100 µM (inactive)
GI50 (SN12C): > 100 µM (inactive)
GI50 (NCI-H460): > 100 µM (inactive)
GI50 (NCI-H23): > 100 µM (inactive)
GI50 (RXF 631): > 100 µM (inactive)
GI50 (OVCAR-4): > 100 µM (inactive)
GI50 (HOP-62): > 100 µM (inactive)
GI50 (DLD-1): > 100 µM (inactive)
GI50 (HOP-18): > 100 µM (inactive)

O=C(NN1C(=O)CSC1c1ccc(Cl)c(Cl)c1)c1ccncc1 (centres undefined)
GI50 (SNB-19): > 100 µM (inactive)
GI50 (SK-OV-3): > 100 µM (inactive)
GI50 (SK-MEL-5): 46.9 µM (inactive)
GI50 (SF-539): > 100 µM (inactive)
GI50 (UACC-257): 54.2 µM (inactive)
GI50 (TK-10): 57.7 µM (inactive)
GI50 (CCRF-CEM): 77.3 µM (inactive)
GI50 (NCI-H522): 72.8 µM (inactive)
GI50 (KM-20L2): 74.6 µM (inactive)
GI50 (CAKI-1): > 100 µM (inactive)
GI50 (SK-MEL-28): > 100 µM (inactive)
GI50 (ACHN): 38.4 µM (inactive)
GI50 (KM12): 38.1 µM (inactive)
GI50 (EKVX): > 100 µM (inactive)
GI50 (SF-268): 78.3 µM (inactive)
GI50 (UO-31): 85.1 µM (inactive)
GI50 (A549): 58.1 µM (inactive)
GI50 (RXF 393): 58.3 µM (inactive)
GI50 (XF498): 48 µM (inactive)
GI50 (OVCAR-5): > 100 µM (inactive)
GI50 (LXFL 529): 71.6 µM (inactive)
GI50 (COLO 205): > 100 µM (inactive)
GI50 (LOX IMVI): 66.4 µM (inactive)
GI50 (Malme-3M): 87.7 µM (inactive)
GI50 (DMS-273): 64.3 µM (inactive)
GI50 (SNB-75): > 100 µM (inactive)
GI50 (M14): 44.5 µM (inactive)
GI50 (SW-620): > 100 µM (inactive)
GI50 (OVCAR-8): 86.7 µM (inactive)
GI50 (IGROV-1): 34.4 µM (inactive)
GI50 (U-251): > 100 µM (inactive)
GI50 (HL-60): 37.8 µM (inactive)
GI50 (MOLT-4): 67.8 µM (inactive)
GI50 (DMS-114): 30.6 µM (inactive)
GI50 (A498): 29.9 µM (inactive)
GI50 (HCT-15): 72.6 µM
GI50 (HCC 2998): 46.2 µM (inactive)
GI50 (SNB-78): 64.6 µM (inactive)
GI50 (SK-MEL-2): 83.8 µM (inactive)
GI50 (HT-29): 60.1 µM (inactive)
GI50 (UACC-62): 31.8 µM (inactive)
GI50 (RPMI-8226): 42.9 µM (inactive)
GI50 (SF-295): 54.3 µM (inactive)
GI50 (SN12C): 75.9 µM (inactive)
GI50 (NCI-H23): 84.7 µM (inactive)
GI50 (RXF 631): 94.4 µM (inactive)
GI50 (OVCAR-4): 54.1 µM (inactive)
GI50 (K562): 37.8 µM (inactive)
GI50 (DLD-1): 38.6 µM (inactive)
GI50 (HOP-18): < 0.01 µM (active)
